Patent publication US20120010135A1, “SPIRO DERIVATIVES FOR THE MODULATION OF STEAROYL-COA DESATURASE” (XENON PHARMACEUTICALS INC., priority 2009, published 2012)
Structures can show the parent of a compound that is named as a salt.

Key:
[1] = molecular target: T1, stearoyl-CoA desaturase (SCD1) (Mus musculus, UniProt P13516); assay: SCD microsomal assay using mouse liver microsomes (release of 3H2O from [9,10-3H]stearoyl-CoA); type: biochemical; settings: 15 min incubation, 25° C.
T1 construct: Male ICR outbread mice, on a high-carbohydrate, low fat diet; from tissue; host or cells: liver microsomes of male ICR mice on a high-carbohydrate, low fat diet
T1 sequence (P13516 1-355): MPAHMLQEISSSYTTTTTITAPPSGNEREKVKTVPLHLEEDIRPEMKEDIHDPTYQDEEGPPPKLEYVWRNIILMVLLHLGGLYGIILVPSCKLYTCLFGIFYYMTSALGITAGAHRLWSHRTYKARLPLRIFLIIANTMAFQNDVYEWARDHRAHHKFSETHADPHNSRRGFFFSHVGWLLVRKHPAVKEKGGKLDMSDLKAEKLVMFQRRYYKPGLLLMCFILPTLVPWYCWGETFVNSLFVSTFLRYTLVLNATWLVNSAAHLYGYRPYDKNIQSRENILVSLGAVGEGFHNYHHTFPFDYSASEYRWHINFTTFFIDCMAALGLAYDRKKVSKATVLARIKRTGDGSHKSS
Text: The identification of compounds of the invention as SCD inhibitors was readily accomplished using the SCD enzyme and microsomal assay procedure described in Shanklin J. and Summerville C., Proc. Natl. Acad. Sci. USA (1991), Vol. 88, pp. 2510-2514.
Measuring Stearoyl-CoA Desaturase Inhibition Activity of a Test Compound Using Mouse Liver Microsomes
The identification of compounds of the invention as SCD inhibitors was readily accomplished using the SCD microsomal assay procedure described in Shanklin J. and Summerville C., Proc. Natl. Acad. Sci. USA (1991), Vol. 88, pp. 2510-2514.
Male ICR outbread mice, on a high-carbohydrate, low fat diet, under light halothane (15% in mineral oil) anesthesia are sacrificed by exsanguination during periods of high enzyme activity. Livers are immediately rinsed with cold 0.9% NaCl solution, weighed and minced with scissors. All procedures are performed at 4′C unless specified otherwise. Livers are homogenized in a solution (1/3 w/v) containing 025 M sucrose, 62 mM potassium phosphate buffer (pH 7.0), 0.15 M KCL 15 mM N-acetyleysteine, 5 mM MgCl2, and 0.1 mM EDTA using 4 strokes of a Potter-Elvehjem tissue homogenizer. The homogenate is centrifuged at 10,400×g for 20 min to eliminate mitochondria and cellular debris. The supernatant is filtered through a 3-layer cheesecloth and centrifuged at 105,000×g for 60 min. The microsomal pellet is gently resuspended in the same homogenization solution with a small glass/teflon homogenizer and stored at −70° C. The absence of mitochondrial contamination is enzymatically assessed. The protein concentration is measured using bovine serum albumin as the standard.
Desaturase activity is measured as the release of ^3H2O from [9,10-^3H]stearoyl-CoA. Reactions per assay point conditions are as follows: 2 μL 1.5 mM stearoyl-CoA, 0.25 μL 1 mCi/mL ^3H-stearoyl CoA, 10 μL 20 mM NADH, 36.75 μL 0.1 M PK buffer (K2HPO4/NaH2PO4, pH 7.2). The test compound or control solution is added in a 1 μL volume. Reactions are started by adding 50 μL of microsomes (1.25 mg/mL). The plates are mixed and after 15 min incubation on a heating block (25° C.), the reactions are stopped by the addition of 10 μL 60% PCA. An aliquot of 100 μL is then transferred to a fitter plate pretreated with charcoal and the plate centrifuged at 4000 rpm for 1 minute. The flow through containing the ^3H2O released by the SCD1 desaturation reaction is added to scintillation fluid and the radioactivity measured in a Packard TopCount. The data is analysed to identify the IC50 for test compounds and reference compounds.
The activity was defined in terms of % SCD enzyme activity remaining at the desired concentration of the test compound or as the IC50 concentration. The IC50 (affinity) of the example compounds toward the stearoyl-CoA desaturase is comprised between around […] and 0.0001 μM or between around […] 0.0001 μM or between around 1 μM and 0.0001 μM.

Structure (SMILES) | IC50 [1] | melting point
CNC(=O)c1ccnc(NC(=O)N2CCC3(CC2)CC(=O)c2ccc(F)cc2O3)c1 [Example 1, 7-fluoro-N-(4-(methylcarbamoyl)pyridin-2-yl)-4-oxospiro[chroman-2,4′-piperidine]-1′-carboxamide hydrochloride] | 524 nM | 
CNC(=O)c1ccnc(NC(=O)N2CCC3(CCc4cccc(Cl)c4O3)CC2)c1 [Example 1.2, 8-chloro-N-(4-(methylcarbamoyl)pyridin-2-yl)spiro[chroman-2,4′-piperidine]-1′-carboxamide hydrochloride] | 3 nM | 
CNC(=O)c1ccnc(NC(=O)N2CCC3(CC2)CC(=O)c2cccc(Cl)c2O3)c1.Cl [Example 1.3, 8-chloro-N-(4-(methylcarbamoyl)pyridin-2-yl)-4-oxospiro[chroman-2,4′-piperidine]-1′-carboxamide hydrochloride] | 56 nM | 215 °C (dec.)
CNC(=O)c1cccc(NC(=O)N2CCC3(CCc4ccc(F)cc4O3)CC2)n1 [Example 1.5, 7-fluoro-N-(6-(methylcarbamoyl)pyridin-2-yl)spiro[chroman-2,4′-piperidine]-it-carboxamide] |  | 126 to 128 °C
CNC(=O)c1cncc(NC(=O)N2CCC3(CCc4ccc(F)cc4O3)CC2)c1 [Example 1.6, 7-fluoro-N-(5-(methylcarbamoyl)pyridin-3-yl)spiro[chroman-2,4′-piperidine]-1′-carboxamide] |  | 231 to 233 °C
CNC(=O)c1ccnc(NC(=O)N2CCC3(CC2)Cc2ccccc2C3)c1 [Example 1.7, N-(4-(methylcarbamoyl)pyridin-2-yl)-1,3-dihydrospiro[indene-2,4′-piperidine]-1′-carboxamide] |  | 229 to 231 °C
Cc1nc(NC(=O)N2CCC3(CCc4ccc(F)cc4O3)CC2)sc1C(=O)NCc1ccccn1 [Example 4, 7-fluoro-N-(4-methyl-5-(pyridin-2-ylmethylcarbamoyl)thiazol-2-yl)spiro[chroman-2,4′-piperidine]-1′-carboxamide] | 48 nM | 165 to 167 °C

The remaining lines, values ahead:

IC50 [1] | melting point | Structure (SMILES)
17 nM | 177 to 179 °C | CNC(=O)c1ccnc(NC(=O)N2CCC3(CCc4ccc(F)cc4O3)CC2)c1 [Example 1.1, 7-fluoro-N-(4-(methylcarbamoyl)pyridin-2-yl)spiro[chroman-2,4′-piperidine]-1′-carboxamide]
 | 175 to 176 °C | CNC(=O)c1ccnc(NC(=O)N2CCC3(CCc4cc(F)ccc4O3)CC2)c1 [Example 1.4, 6-fluoro-N-(4-(methylcarbamoyl)pyridin-2-yl)spiro[chroman-2,4′-piperidine]-1′-carboxamide]
40 nM |  | Cn1cc(CNC(=O)c2ccnc(NC(=O)N3CCC4(CCc5cc(F)ccc5O4)CC3)c2)cn1 [Example 2.1, 6-fluoro-N-(4-{[(1-methyl-1H-pyrazol-4-yl)methyl]carbamoyl}pyridin-2-yl)-3,4-dihydro-1′H-spiro[chromene-2,4′-piperidine]-1′-carboxamide hydrochloride]
 | 265 to 267 °C | NC(=O)c1ccnc(NC(=O)N2CCC3(CCc4cc(F)ccc4O3)CC2)c1 [Example 3, N-(4-carbamoylpyridin-2-yl)-6-fluorospiro[chroman-2,4′-piperidine]-1′-carboxamide]
